Experimental data: patent US20100129831A1, “METHODS FOR DIAGNOSING HYPERSENSITIVITY REACTIONS” (priority 2007, published 2010)

Test system: acute interstitial nephritis
Experiment: oral glucocorticoid treatment of acute interstitial nephritis (case report)
Format: in vivo, human
Details: 1 mg/kg, creatinine gradually declined
Method: Severe acute interstitial nephritis (AIN) was diagnosed based on needle biopsy. Oral glucocorticoid treatment (prednisone 1 mg/kg) was begun and was effective. Creatinine gradually declined over the next 8 weeks (Cr-3.5 mg/dL); glucose levels also declined. Another course of steroids was initiated, after which the creatinine level further declined, stabilizing around a level of 1.8 mg/dL, close to the previous value of 1.4 mg/dL. While investigated as to the etiology of their newly diagnosed AIN, the patient described the use of an alternative medicine hypnotic or sedative OTC, “Region-Laila.” Region's leaflet lists 4 active ingredients: Passiflora incarnata 250 mg, Scutellaria laterifolia 50 mg, Humulus Lupullus 50 mg and Melissa officinalis 25 mg.

SMILES: C[C@]12C=CC(=O)C=C1CC[C@@H]1[C@@H]2C(=O)C[C@@]2(C)[C@H]1CC[C@]2(O)C(=O)CO [prednisone]
- treatment outcome in acute interstitial nephritis: effective
